Test results as given in patent US5877175A, “Pharmaceutical compositions” (KNOLL Aktiengesellschaft, priority 1995, dated 1999).

Columns and labels:
[1] = system: myoclonic seizures induced in mice by the administration of bicuculline; experiment: BICM test: antagonism of myoclonic seizures induced in mice by bicuculline; type: in vivo; conditions: female mice, 1 h before (+)-bicuculline 0.55 mg/kg i.v.; for ED50: Mus musculus, oral, dose inhibiting seizures in 50% of the animals; for % protection from bicuculline-induced seizures: figure in brackets, 100 mg/kg (po)
Text: The ability of the compounds to antagonise the myoclonic seizures induced in mice by the administration of bicuculline was observed. Hereinafter, this test is referred to as "BICM".
In the BICM experiments groups of female mice in the weight range 25 to 30 grammes had free access to food and water until one hour before administration of the compound to be tested. The compound to be tested was orally administered at one or more doses in 1% aqueous methylcellulose solution. One hour later (+)-bicuculline at a dose of 0.55 mg/kg was administered intravenously into a tail vein. Such a dose of (+)-bicuculline would generally be expected to induce a seizure in the mice.
During the following two minutes the animals were observed and the percentage of animals in which seizures had been inhibited was recorded. Thus, the greater the anticonvulsant activity of the compound, the higher was the percentage recorded in the BICM test.
A value for the dose inhibiting the seizures in 50% of the animals (ED50) was calculated from the regression straight line plot of the percentage of animals in which seizures were inhibited against the dose of compound.

[2] = system: seizures in mice induced by a maximal electroshock; experiment: MESM test: inhibition of seizures in mice induced by a maximal electroshock; type: in vivo; conditions: male mice, 1 h before electroshock (99 mA, 50 Hz, 1.0 second); for ED50: Mus musculus, oral, dose inhibiting seizures in 50% of the mice; for % protection from MES-induced seizure: figure in brackets, 100 mg/kg (po)
Experimental: The ability of the compounds to inhibit seizures in mice induced by a maximal electroshock was observed. Hereinafter, this test is referred to as `MESM`.
In the MESM experiments, groups of male mice in the weight range 25 to 30 grammes had free access to food and water until the start of the experiment. The mice were divided into two groups, a control group and a test group to which a compound of formula I or II would be administered. The control group received an oral dose of 10 ml/kg of a vehicle of 1% aqueous methyl cellulose solution. […] One hour after administration of all drugs an electroshock of duration 1.0 second was administered to all the mice in both groups through ear clip electrodes moistened with saline. […] Such a shock would generally be expected to induce a seizure in the mice.
The greater the anticonvulsant activity of the compound of formula I or II, the higher was the percentage recorded in the MESM test.
If results at more than one dose were available, then a value for the dose inhibiting seizures in 50% of the mice (ED50) was calculated from the regression straight line plot of the percentage of mice in which seizures were inhibited against the dose of the compound of formula I or II administered.

For CC(C)(C)c1nccc(-c2nn(-c3ccc(F)cc3)ccc2=O)n1 [Example 1, 3-(2-Tert-butylpyrimidin-4-yl)-1-(4-fluorophenyl)pyridazin-4(1H)-one], the ED50 [1] was 4.7 mg/kg.

CC(C)c1nccc(-c2nn(-c3ccc(F)cc3)ccc2=O)n1 [Example 2, 3-(2-isopropylpyrimidin-4-yl)-1-(4-fluorophenyl)pyridazin-4(1H)-one] was tested, and the ED50 [2] was 83.4 mg/kg and the ED50 [1] was 4.6 mg/kg.

In the case of O=c1ccn(-c2ccc(F)cc2)nc1-c1ccnc(-c2ccccc2)n1 [Example 3, 3-(2-phenylpyrimidin-4-yl)-1-(4-fluorophenyl)pyridazin-4(1H)-one], the “% protection from MES-induced seizure” value [2] is reported as 50%.

With O=c1ccn(-c2ccc(Cl)cc2Cl)nc1-c1ccncn1 [Example 4, 3-(pyrimidin-4-yl)-1-(2,4-dichlorophenyl)pyridazin-4(1H)-one] the ED50 [2] was 73.6 mg/kg and the ED50 [1] was 158 mg/kg.

With CC(C)c1nccc(-c2nn(-c3ccc(Cl)cc3)ccc2=O)n1 [Example 5, 3-(2-isopropylpyrimidin-4-yl)-1-(4-chlorophenyl)pyridazin-4(1H)-one] the “% protection from MES-induced seizure” value [2] was 50% and the ED50 [1] was 11.8 mg/kg.

O=c1ccn(-c2ccc(Cl)cc2)nc1-c1ccnc(C2CC2)n1 [Example 6, 3-(2-cyclopropylpyrimidin-4-yl)-1-(4-chlorophenyl)pyridazin-4(1H)-one] was tested, and the “% protection from bicuculline-induced seizures” value [1] was 60%.

O=c1ccn(-c2ccc(F)cc2)nc1-c1ccnc(C2CCCCC2)n1 [Example 7, 3-(2-cyclohexylpyrimidin-4-yl)-1-(4-fluorophenyl)pyridazin-4(1H)-one] was tested, and the “% protection from bicuculline-induced seizures” value [1] was 70%.

Compound O=c1ccn(-c2ccc(Cl)cc2)nc1-c1ccnc(C2CCCCC2)n1 [Example 8, 3-(2-cyclohexylpyrimidin-4-yl)-1-(4-chlorophenyl)pyridazin-4(1H)-one] has an ED50 [1] of 12.9 mg/kg.

With CCCc1nccc(-c2nn(-c3ccc(F)cc3)ccc2=O)n1 [Example 9, 3-(2-propylpyrimidin-4-yl)-1-(4-fluorophenyl)pyridazin-4(1H)-one] the “% protection from MES-induced seizure” value [2] was 50%.
